Laboratory results taken from patent US8207172B2 (Bayer Intellectual Property GmbH, priority 2004, dated 2012).

What was measured:
[1] = system: A431 cells (human epidermoid carcinoma); test: In vitro tumor cell proliferation assay (Cell Titer-Glo luminescent cell viability), A431; assay type: cell-based; settings: A-431, 72 h, 72 hours of drug exposure, ATP luminescence readout, read-out: IC50, anti-proliferative activity (inhibition of cell proliferation)
Procedure, shortened: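 A431 or BT474 cells were exposed 72 h at 37°C to serially diluted compounds (final 100 μM down to 64 pM, 0.1% DMSO). Viable cells were read by ATP luminescence (CellTiter-Glo) and IC50 values derived.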

[2] = system: BT474 (human breast carcinoma); test: In vitro tumor cell proliferation assay (Cell Titer-Glo luminescent cell viability), BT474; assay type: cell-based; settings: BT-474, 72 h, BT474 cells, 72 hours of drug exposure, ATP luminescence readout, read-out: IC50, anti-proliferative activity (inhibition of cell proliferation)
Text: In vitro Tumor Cell Proliferation Assay
The tumor cell proliferation assay used to test the compounds of the present invention involves a readout called Cell Titer-Glow® Luminescent Cell Viability Assay developed by Promega® (Cunningham, B A “A Growing Issue: Cell Proliferation Assays, Modern kits ease quantification of cell growth” The Scientist 2001, 15(13), 26, and Crouch, S P et al., “The use of ATP bioluminescence as a measure of cell proliferation and cytotoxicity” Journal of Immunological Methods 1993, 160, 81-88), that measures inhibition of cell proliferation. Generation of a luminescent signal corresponds to the amount of ATP present, which is directly proportional to the number of metabolically active (proliferating) cells.
A431cells (human epidermoid carcinoma, ATCC […]) and BT474 (human breast carcinoma, ATCC […]) were plated at a density of 2.5×10^3 cells/well in 96 well black-clear bottom tissue culture plates in RPMI media with 10% Fetal Bovine Serum and incubated at 37° C. Twenty-four hours later, test compounds are added at a final concentration range from as high […] to as low 64 pM depend on the activities of the tested compounds in serial dilutions at a final DMSO concentration of 0.1%. Cells were incubated for 72 hours at 37° C. in complete growth media after addition of the test compound. After 72 hours of drug exposure, the plates were equilibrated to room temperature for approximately 30 min. Then, using a Promega Cell Titer Glo Luminescent® assay kit, lysis buffer containing 100 microliters of the enzyme luciferase and its substrate, luciferin mixture, was added to each well. The plates were mixed for 2 min on orbital shaker to ensure cell lysis and incubated for 10 min at room temperature to stabilize luminescence signal. The samples were read on VICTOR 2 using Luminescence protocol, and analyzed with Analyze5 software to generate IC50 values.

Row | Compound | IC50 [1] [µM] | IC50 [2] [µM]
1 | Fc1cccc(COc2ccc(Nc3ncnc4sc5c(c34)CCc3c-5cnn3CCN3CCN(Cc4ccncc4)CC3)cc2Cl)c1 [Example 263, N-{3-chloro-4-[(3-fluorobenzyl)oxy]phenyl}-3-{2-[4-(pyridin-4-ylmethyl)piperazin-1-yl]ethyl}-4,5-dihydro-3H-pyrimido[5′,4′:4,5]thieno[2,3-e]indazol-6-amine] | ≤ 50 | ≤ 1
2 | CN1CCN(CCn2cc3c(n2)CCc2c-3sc3ncnc(Nc4ccc(OCc5ccccc5)c(Cl)c4)c23)CC1 [Example 54, N-[4-(benzyloxy)-3-chlorophenyl]-2-[2-(4-methylpiperazin-1-yl)ethyl]-4,5-dihydro-2H-pyrimido[5′,4′:4,5]thieno[2,3-e]indazol-6-amine] | ≤ 5 | ≤ 1
3 | CCN1CCC(n2cc3c(n2)CCc2c-3sc3ncnc(Nc4ccc(OCc5cccc(F)c5)c(Cl)c4)c23)CC1 [Example 230, N-{3-chloro-4-[(3-fluorobenzyl)oxy]phenyl}-2-(1-ethylpiperidin-4-yl)-4,5-dihydro-2H-pyrimido[5′,4′:4,5]thieno[2,3-e]indazol-6-amine] | ≤ 5 | ≤ 1
4 | Fc1cccc(Cn2ncc3cc(Nc4ncnc5sc6c(c45)CCc4c-6cnn4CCn4ccnc4)ccc32)c1 [Example 291, N-[1-(3-fluorobenzyl)-1H-indazol-5-yl]-3-[2-(1H-imidazol-1-yl)ethyl]-4,5-dihydro-3H-pyrimido[5′,4′:4,5]thieno[2,3-e]indazol-6-amine] | ≤ 5 | ≤ 1
5 | CC(C)N1CCC(CCn2cc3c(n2)CCc2c-3sc3ncnc(Nc4ccc(OCc5cccc(F)c5)c(Cl)c4)c23)CC1 [Example 252, N-{3-chloro-4-[(3-fluorobenzyl)oxy]phenyl}-2-[2-(1-isopropylpiperidin-4-yl)ethyl]-4,5-dihydro-2H-pyrimido[5′,4′:4,5]thieno[2,3-e]indazol-6-amine] | ≤ 5 | ≤ 1
6 | COCCNCCn1cc2c(n1)CCc1c-2sc2ncnc(Nc3ccc(F)c(Cl)c3)c12 [Example 4, N-(3-chloro-4-fluorophenyl)-2-{2-[(2-methoxyethyl)amino]ethyl}-4,5-dihydro-2H-pyrimido[5′,4′:4,5]thieno[2,3-e]indazol-6-amine] | ≤ 5 | ≤ 5
7 | CS(=O)(=O)OCCn1cc2c(n1)CCc1c-2sc2ncnc(Nc3ccc4c(cnn4Cc4cccc(F)c4)c3)c12 [Example 276, 2-(6-{[1-(3-fluorobenzyl)-1H-indazol-5-yl]amino}-4,5-dihydro-2H-pyrimido[5′,4′:4,5]thieno[2,3-e]indazol-2-yl)ethyl methanesulfonate] | ≤ 5 | ≤ 1
8 | CC(C)(C)OC(=O)N1CCC(Cn2cc3c(n2)CCc2c-3sc3ncnc(Nc4ccc(OCc5cccc(F)c5)c(Cl)c4)c23)CC1 [Example 231, tert-butyl 4-{[6-({3-chloro-4-[(3-fluorobenzyl)oxy]phenyl}amino)-4,5-dihydro-2H-pyrimido[5′,4′:4,5]thieno[2,3-e]indazol-2-yl]methyl}piperidine-1-carboxylate] | ≤ 50 | ≤ 5
9 | OCCn1cc2c(n1)CCc1c-2sc2ncnc(Nc3ccc(OCc4ccccc4)c(Cl)c3)c12 [Example 124, 2-(6-{[4-(benzyloxy)-3-chlorophenyl]amino}-4,5-dihydro-2H-pyrimido[5′,4′:4,5]thieno[2,3-e]indazol-2-yl)ethanol] | ≤ 50 | ≤ 1
10 | CCCN(CCOC)CCn1cc2c(n1)CCc1c-2sc2ncnc(Nc3ccc(F)c(Cl)c3)c12 [Example 23, N-(3-chloro-4-fluorophenyl)-2-{2-[(2-methoxyethyl)(propyl)amino]ethyl}-4,5-dihydro-2H-pyrimido[5′,4′:4,5]thieno[2,3-e]indazol-6-amine] | ≤ 5 | ≤ 5
11 | CN(C)CCCCNCCn1cc2c(n1)CCc1c-2sc2ncnc(Nc3ccc(F)c(Cl)c3)c12 [Example 17, N′-(2-{6-[(3-chloro-4-fluorophenyl)amino]-4,5-dihydro-2H-pyrimido[5′,4′:4,5]thieno[2,3-e]indazol-2-yl}ethyl)-N,N-dimethylbutane-1,4-diamine] | ≤ 5 | ≤ 5
12 | O=C(CN1CCOCC1)N1CCC(Cn2cc3c(n2)CCc2c-3sc3ncnc(Nc4ccc(OCc5cccc(F)c5)c(Cl)c4)c23)CC1 [Example 238, N-{3-chloro-4-[(3-fluorobenzyl)oxy]phenyl}-2-{[1-(morpholin-4-ylacetyl)piperidin-4-yl]methyl}-4,5-dihydro-2H-pyrimido[5′,4′:4,5]thieno[2,3-e]indazol-6-amine] | ≤ 5 | ≤ 1

Next, values leading:

Row | IC50 [1] [µM] | IC50 [2] [µM] | Compound
13 | ≤ 50 | ≤ 1 | CNC(=O)Cn1cc2c(n1)CCc1c-2sc2ncnc(Nc3ccc(OCc4cccc(F)c4)c(Cl)c3)c12 [Example 188, 2-[6-({3-chloro-4-[(3-fluorobenzyl)oxy]phenyl}amino)-4,5-dihydro-2H-pyrimido[5′,4′:4,5]thieno[2,3-e]indazol-2-yl]-N-methylacetamide]
14 | ≤ 50 | ≤ 1 | O=C(Cn1ncc2c1CCc1c-2sc2ncnc(Nc3ccc(OCc4cccc(F)c4)c(Cl)c3)c12)N1CCOCC1 [Example 199, N-{3-chloro-4-[(3-fluorobenzyl)oxy]phenyl}-3-(2-morpholin-4-yl-2-oxoethyl)-4,5-dihydro-3H-pyrimido[5′,4′:4,5]thieno[2,3-e]indazol-6-amine]
15 | ≤ 5 | ≤ 1 | Fc1cccc(COc2ccc(Nc3ncnc4sc5c(c34)CCc3nn(CCN4CCCC4)cc3-5)cc2Cl)c1 [Example 65, N-{3-chloro-4-[(3-fluorobenzyl)oxy]phenyl}-2-(2-pyrrolidin-1-ylethyl)-4,5-dihydro-2H-pyrimido[5′,4′:4,5]thieno[2,3-e]indazol-6-amine]
16 | ≤ 5 | ≤ 1 | OCC(O)Cn1ncc2c1CCc1c-2sc2ncnc(Nc3ccc(OCc4cccc(F)c4)c(Cl)c3)c12 (centres unmarked) [Example 132, 3-[6-({3-chloro-4-[(3-fluorobenzyl)oxy]phenyl}amino)-4,5-dihydro-3Hpyrimido[5′,4′:4,5]thieno[2,3-e]indazol-3-yl]propane-1,2-diol]
17 | ≤ 5 | ≤ 1 | CN1CCN(C(=O)Cn2cc3c(n2)CCc2c-3sc3ncnc(Nc4ccc(OCc5cccc(F)c5)c(Cl)c4)c23)CC1 [Example 183, N-{3-chloro-4-[(3-fluorobenzyl)oxy]phenyl}-2-[2-(4-methylpiperazin-1-yl)-2-oxoethyl]-4,5-dihydro-2H-pyrimido[5′,4′:4,5]thieno[2,3-e]indazol-6-amine]
18 | ≤ 50 | ≤ 1 | O=C(Cn1ncc2c1CCc1c-2sc2ncnc(Nc3ccc(OCc4cccc(F)c4)c(Cl)c3)c12)NCCN1CCNCC1 [Example 200, 2-[6-({3-chloro-4-[(3-fluorobenzyl)oxy]phenyl}amino)-4,5-dihydro-3H-pyrimido[5′,4′:4,5]thieno[2,3-e]indazol-3-yl]-N-(2-piperazin-1-ylethyl)acetamide]
19 | ≤ 50 | ≤ 1 | OCCNCCn1ncc2c1CCc1c-2sc2ncnc(Nc3ccc(OCc4cccc(F)c4)c(Cl)c3)c12 [Example 264, 2-({2-[6-({3-chloro-4-[(3-fluorobenzyl)oxy]phenyl}amino)-4,5-dihydro-3H-pyrimido[5′,4′:4,5]thieno[2,3-e]indazol-3-yl]ethyl}amino)ethanol]
20 | ≤ 5 | ≤ 1 | O=C(Cn1ncc2c1CCc1c-2sc2ncnc(Nc3ccc(OCc4cccc(F)c4)c(Cl)c3)c12)N1CCNCC1 [Example 201, N-{3-chloro-4-[(3-fluorobenzyl)oxy]phenyl}-3-(2-oxo-2-piperazin-1-ylethyl)-4,5-dihydro-3H-pyrimido[5′,4′:4,5]thieno[2,3-e]indazol-6-amine]
21 | ≤ 5 | ≤ 1 | Fc1cccc(COc2ccc(Nc3ncnc4sc5c(c34)CCc3c-5cnn3CCn3ccnc3)cc2Cl)c1 [Example 83, N-{3-chloro-4-[(3-fluorobenzyl)oxy]phenyl}-3-[2-(1H-imidazol-1-yl)ethyl]-4,5-dihydro-3H-pyrimido[5′,4′:4,5]thieno[2,3-e]indazol-6-amine]
22 | ≤ 50 | ≤ 1 | Fc1cccc(COc2ccc(Nc3ncnc4sc5c(c34)CCc3c-5cnn3CCCN3CCOCC3)cc2Cl)c1 [Example 271, N-{3-chloro-4-[(3-fluorobenzyl)oxy]phenyl}-3-(3-morpholin-4-ylpropyl)-4,5-dihydro-3H-pyrimido[5′,4′:4,5]thieno[2,3-e]indazol-6-amine]
